Columns and labels:
PI3K = PI3K activity with Akt-PH-GFP biosensor in MV3 cells; format: cell-based, human; settings: rounded, poorly-adhered MV3 cells
Protocol: Cells Embedded in 3D Collagen.
Cells Grown in VitroGel Coffins. VitroGel coffins were prepared by embedding MV3 or A375 cells in VitroGel 3D or RGD at 1:1 dilution according to manufacturer's instructions (TheWell Biosciences, sku #TWG001). […] A 1:1 solution of VitroGel and VitroGel Dilution Solution was made and added to cell suspension at a ratio of 4:1 (VitroGel: cells) using gentle pipetting until well-mixed (with care taken not to form bubbles). Cell/VitroGel solution was transferred to an 8-well uncoated ibidi μ-slide (ibidi cat #80821) at 100 μl/well, spread over the bottom of wells with a pipette tip, and allowed to polymerize at room temperature for 15 minutes. […]
Cortical septin levels were quantified by measuring the mean cytoplasmic intensity of each cell using hand-drawn ROIs that excluded nuclei (performed with the FIJI ImageJ package), and then calculating for each cell its fraction of cortical voxels (intracellular voxels within 0.96 μm of the u-Shape3D-derived surface) that were higher than that cell's mean cytoplasmic intensity (performed using a MATLAB script). […] To quantify PI3K biosensor fluorescence signal, cells were segmented with u-shape3D and the intracellular signal was summed across the z-axis to yield a sum projection image (performed with the FIJI ImageJ package). […]

ERK = ERK activity assay with ERK-nKTR-GFP biosensor in MV3 cells; format: cell-based, human
Protocol: (§1) Detached/Adhered Cell Culture. […] Drug treatments, solvent-only controls, or CellEvent caspase activity sensor were added to suspensions if appropriate to the experiment, and then immediately transferred to both an uncoated (for detached cells) and ibiTreated (for adhered cells) 8-well ibidi u-slide (ibidi cat #80821 and 80826) at 200 μl/well. Both slides were stored at 37° C. and 5% CO2 for either 24 hours (hrs) for viability assays, 3 hrs for ERK activity assays or 4 hours for caspase activation assays. Uncoated slides (detached) were nutated at 20 rpm during this time. […]
(§2) Viability, ERK Activity, and Caspase ActivityCell Counting Assays. Viability, ERK activity, and caspase activity assays were analyzed using live-cell fluorescent and phase-contrast microscopy, performed on a Nikon Ti microscope equipped with an environmental chamber held at 37° C. and 5% CO2 at 20× magnification. […] Live and dead cells (as identified by significant cellular ethidium signal) were counted using the Cell Counter ImageJ plugin. For ERK activity assays, live cells carrying ERK-nKTR-GFP and H2B-mCherry were imaged after 3 hours of experimental conditions and high/low ERK activity cells were counted with Cell Counter ImageJ plugin. […] Caspase positive and negative cells (as identified by significant cellular CellEvent signal) were counted using the Cell Counter ImageJ plugin.

[1] = tested on: septin structures in MV3 melanoma xenografts; experiment: Septin foci at invasive front of MV3 SEPT6-GFP xenograft tumors (ctASLM); format: in vivo, NOD SCID mice; settings: mice with MV3 SEPT6-GFP tumors, FCF via oral gavage
Source text: NOD SCID mice were flank-injected with SEPT6-GFP-expressing MV3 melanoma cells to form xenograft tumors. Once tumors were palpable at injection sites they were dissected out with surrounding stroma, fixed, cleared, and imaged via cleared tissue axially-scanned lightsheet microscopy (ctASLM) to observe and quantify bleb formation and septin structure formation. As shown in FIG. 18A and FIG. 18B these in vivo experiments recapitulated in vitro results described previously, showing blebby morphologies with associated punctate septin structures (FIG. 18A). Importantly, this phenotype was exclusively observed at the invasive front of tumors, where cells lose contact to surrounding tissue, and not in the densely packed tumor core (FIG. 18B). These findings agree with previous research showing that blebby amoeboid-like cells are enriched at tumor invasive fronts. […] Furthermore, they support the idea that such bleb-associated septin signaling hubs are relevant in disease progression in human patients.
Specifically, FIG. 20A and FIG. 20B depict graphs illustrating the feasibility of anti-septin therapy in vivo. In triplicate experiments, mice growing tumors formed with SEPT6-GFP expressing MV3 melanoma cells (using the methods described in Example 8 above) were treated with FCF via oral gavage and septin structures were analyzed. […]

MV3 cells = experiment: Caspase activity assay (CellEvent Caspase-3/7) in MV3 cells; format: cell-based, human; settings: detached MV3 cells, 4 h, 10 μg/mL WGA
Protocol: as §1, §2

Row | Compound | PI3K activity (PI3K) | ERK signaling (ERK; adhered MV3, 3 hours of FCF) | ERK activation (ERK; detached MV3, 3 hours of FCF) | intensity of septin foci at the invasive front [1] | number of septin foci at the invasive front [1] | caspase activation (MV3 cells)
1 | O=C(Nc1ccccc1)Nc1ccnc(Cl)c1 [FCF, forchlorfenuron] | PI3K activity fell significantly | no difference in ERK signaling compared to controls | significantly reduced | dimmer | significantly fewer | 
2 | wheat germ agglutinin [WGA] |  |  |  |  |  | consistent and specific increase of caspase activation
